Measured values reported in PubChem BioAssay (NCI).
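Assay format: 96-well plates, 48-hour exposure. At the TGI there is no net growth.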

What was measured:
Experiment in all cases: inhibition of tumour cell growth, NCI panel, 48 h
NCI-H23 lung = test system: NCI-H23 lung
EKVX NSCLC = test system: EKVX NSCLC
PC-3 prostate = test system: PC-3 prostate
U251 CNS = test system: U251 CNS
RPMI-8226 leukemia = test system: RPMI-8226 leukemia
MDA-N = test system: MDA-N
ACHN renal = test system: ACHN renal
IGROV1 ovarian = test system: IGROV1 ovarian
OVCAR-5 ovarian = test system: OVCAR-5 ovarian
MDA-MB-435 = test system: MDA-MB-435
T-47D breast = test system: T-47D breast
NCI-H460 lung = test system: NCI-H460 lung
SR leukemia = test system: SR leukemia
A498 renal = test system: A498 renal
SK-MEL-2 melanoma = test system: SK-MEL-2 melanoma
HS 578T breast = test system: HS 578T breast
CCRF-CEM leukemia = test system: CCRF-CEM leukemia
TK-10 renal = test system: TK-10 renal
HL-60(TB) leukemia = test system: HL-60(TB) leukemia
COLO 205 colon = test system: COLO 205 colon
OVCAR-3 ovarian = test system: OVCAR-3 ovarian
NCI/ADR-RES ovarian = test system: NCI/ADR-RES ovarian
MALME-3M melanoma = test system: MALME-3M melanoma
UO-31 renal = test system: UO-31 renal
SF-295 CNS = test system: SF-295 CNS
NCI-H226 lung = test system: NCI-H226 lung
SN12C renal = test system: SN12C renal
HOP-62 NSCLC = test system: HOP-62 NSCLC
UACC-257 melanoma = test system: UACC-257 melanoma
HCT-116 colon = test system: HCT-116 colon
SW-620 colon = test system: SW-620 colon
SF-268 CNS = test system: SF-268 CNS
HCC-2998 colon = test system: HCC-2998 colon
KM12 colon = test system: KM12 colon
SK-MEL-28 melanoma = test system: SK-MEL-28 melanoma
SNB-75 CNS = test system: SNB-75 CNS
SK-MEL-5 melanoma = test system: SK-MEL-5 melanoma
MCF7 breast = test system: MCF7 breast
MDA-MB-231 breast = test system: MDA-MB-231 breast
OVCAR-4 ovarian = test system: OVCAR-4 ovarian
HCT-15 colon = test system: HCT-15 colon
SK-OV-3 ovarian = test system: SK-OV-3 ovarian
NCI-H522 lung = test system: NCI-H522 lung
OVCAR-8 ovarian = test system: OVCAR-8 ovarian
HT29 colon = test system: HT29 colon
DU-145 prostate = test system: DU-145 prostate
786-0 renal = test system: 786-0 renal
A549 NSCLC = test system: A549 NSCLC
K-562 leukemia = test system: K-562 leukemia
MOLT-4 leukemia = test system: MOLT-4 leukemia
UACC-62 melanoma = test system: UACC-62 melanoma
LOX IMVI melanoma = test system: LOX IMVI melanoma
HOP-92 NSCLC = test system: HOP-92 NSCLC
CAKI-1 renal = test system: CAKI-1 renal
RXF 393 renal = test system: RXF 393 renal
BT-549 breast = test system: BT-549 breast
SF-539 CNS = test system: SF-539 CNS
SNB-19 CNS = test system: SNB-19 CNS
M14 melanoma = test system: M14 melanoma

Structure (SMILES): CCOP(=O)(CCC(O)CNc1nc(N)nc(Cl)c1N=Nc1ccc(Cl)cc1)OCC (stereo not drawn)
- TGI (NCI-H23 lung): 37.4 µM
- TGI (EKVX NSCLC): 40.6 µM
- TGI (PC-3 prostate): 29.7 µM
- TGI (U251 CNS): 51.2 µM
- TGI (RPMI-8226 leukemia): 42.7 µM
- TGI (MDA-N): 28.3 µM
- TGI (ACHN renal): 31.6 µM
- TGI (IGROV1 ovarian): 33 µM
- TGI (OVCAR-5 ovarian): 34.1 µM
- TGI (MDA-MB-435): 29.9 µM
- TGI (T-47D breast): 37.3 µM
- TGI (NCI-H460 lung): 26.1 µM
- TGI (SR leukemia): 50.3 µM
- TGI (A498 renal): 27.7 µM
- TGI (SK-MEL-2 melanoma): 24.3 µM
- TGI (HS 578T breast): 38.2 µM
- TGI (CCRF-CEM leukemia): 46.5 µM
- TGI (TK-10 renal): 54.1 µM
- TGI (HL-60(TB) leukemia): 33.3 µM
- TGI (COLO 205 colon): 27.4 µM
- TGI (OVCAR-3 ovarian): 25.3 µM
- TGI (NCI/ADR-RES ovarian): 46.9 µM
- TGI (MALME-3M melanoma): 21.4 µM
- TGI (UO-31 renal): 16.6 µM
- TGI (SF-295 CNS): 38 µM
- TGI (NCI-H226 lung): 64.5 µM
- TGI (SN12C renal): 42.7 µM
- TGI (HOP-62 NSCLC): 40.2 µM
- TGI (UACC-257 melanoma): 29.5 µM
- TGI (HCT-116 colon): 40.3 µM
- TGI (SW-620 colon): 42.7 µM
- TGI (SF-268 CNS): 42.7 µM
- TGI (HCC-2998 colon): 26.1 µM
- TGI (KM12 colon): 37.5 µM
- TGI (SK-MEL-28 melanoma): 25.9 µM
- TGI (SNB-75 CNS): 49.3 µM
- TGI (SK-MEL-5 melanoma): 25.7 µM
- TGI (MCF7 breast): 26.3 µM
- TGI (MDA-MB-231 breast): > 100 µM
- TGI (OVCAR-4 ovarian): 24.3 µM
- TGI (HCT-15 colon): 19.6 µM
- TGI (SK-OV-3 ovarian): 58.9 µM
- TGI (NCI-H522 lung): 23 µM
- TGI (OVCAR-8 ovarian): > 100 µM
- TGI (HT29 colon): 28.8 µM
- TGI (DU-145 prostate): > 100 µM
- TGI (786-0 renal): 48.4 µM
- TGI (A549 NSCLC): 33.8 µM
- TGI (K-562 leukemia): > 100 µM
- TGI (MOLT-4 leukemia): 37.1 µM
- TGI (UACC-62 melanoma): 30.2 µM
- TGI (LOX IMVI melanoma): 22.9 µM
- TGI (HOP-92 NSCLC): 3.8 µM
- TGI (CAKI-1 renal): 14.5 µM
- TGI (RXF 393 renal): 21.1 µM

Structure (SMILES): Cc1cc(Cl)ccc1NC(=O)/C(CC(=O)CC(c1ccccc1)c1c(O)c2ccccc2oc1=O)=N\O (stereo not drawn)
- TGI (NCI-H23 lung): > 100 µM
- TGI (EKVX NSCLC): > 100 µM
- TGI (PC-3 prostate): > 100 µM
- TGI (U251 CNS): > 100 µM
- TGI (MDA-N): > 100 µM
- TGI (ACHN renal): > 100 µM
- TGI (IGROV1 ovarian): > 100 µM
- TGI (OVCAR-5 ovarian): > 100 µM
- TGI (MDA-MB-435): > 100 µM
- TGI (NCI-H460 lung): > 100 µM
- TGI (SK-MEL-2 melanoma): > 100 µM
- TGI (HS 578T breast): > 100 µM
- TGI (CCRF-CEM leukemia): > 100 µM
- TGI (TK-10 renal): > 100 µM
- TGI (HL-60(TB) leukemia): > 100 µM
- TGI (COLO 205 colon): > 100 µM
- TGI (BT-549 breast): > 100 µM
- TGI (OVCAR-3 ovarian): > 100 µM
- TGI (NCI/ADR-RES ovarian): > 100 µM
- TGI (UO-31 renal): > 100 µM
- TGI (SF-539 CNS): > 100 µM
- TGI (SF-295 CNS): > 100 µM
- TGI (NCI-H226 lung): > 100 µM
- TGI (SN12C renal): > 100 µM
- TGI (HOP-62 NSCLC): > 100 µM
- TGI (UACC-257 melanoma): > 100 µM
- TGI (HCT-116 colon): > 100 µM
- TGI (SW-620 colon): > 100 µM
- TGI (SF-268 CNS): > 100 µM
- TGI (HCC-2998 colon): > 100 µM
- TGI (KM12 colon): > 100 µM
- TGI (SK-MEL-28 melanoma): > 100 µM
- TGI (SNB-75 CNS): > 100 µM
- TGI (SK-MEL-5 melanoma): > 100 µM
- TGI (MCF7 breast): > 100 µM
- TGI (MDA-MB-231 breast): > 100 µM
- TGI (OVCAR-4 ovarian): > 100 µM
- TGI (HCT-15 colon): > 100 µM
- TGI (SK-OV-3 ovarian): > 100 µM
- TGI (NCI-H522 lung): > 100 µM
- TGI (OVCAR-8 ovarian): > 100 µM
- TGI (HT29 colon): > 100 µM
- TGI (DU-145 prostate): > 100 µM
- TGI (786-0 renal): > 100 µM
- TGI (A549 NSCLC): > 100 µM
- TGI (MOLT-4 leukemia): > 100 µM
- TGI (UACC-62 melanoma): > 100 µM
- TGI (SNB-19 CNS): > 100 µM
- TGI (LOX IMVI melanoma): > 100 µM
- TGI (HOP-92 NSCLC): > 100 µM
- TGI (CAKI-1 renal): > 100 µM
- TGI (RXF 393 renal): > 100 µM
- TGI (M14 melanoma): > 100 µM
